According to US20040029908A1, “Tricyclo compounds, a process for their production and a pharmaceutical composition containing the same” (FUJISAWA PHARMACEUTICAL CO., LTD., priority 1984, published 2004):
Converted amounts (≈) assume the structure as drawn.

Experiments:
[1] = tested on: Fusarium oxysporum; test: Antimicrobial activity, serial agar dilution method in Sabouraud agar; format: cell-based; conditions: 30° C., 24 hours
Method: (§1) Antimicrobial activities of the tricyclo compounds (I) against various fungi were determined by a serial agar dilution method in a Sabouraud agar. Minimum inhibitory concentrations (MIC) were expressed in terms of μg/ml after incubation at 30° C. for 24 hours.

[2] = tested on: Aspergillus fumigatus IFO 5840; test: as above; format: cell-based; conditions: IFO5840, 30° C., 24 hours
Method: as §1

[3] = tested on: ddY mice; test: Acute toxicities in ddY mice by intraperitoneal injection; format: in vivo; conditions: ddY mice, intraperitoneal injection
[4] = tested on: interleukin 3 and interferones; test: Lymphokine production in the supernatant of MLR; format: cell-based, mouse; conditions: especially y-interferone
Method: The mixed lymphocyte reaction (MILR) was performed in microtiter plates, with each well containing 5 ×10^5 C57BL/6 responder cells (H-2^b), 5 ×10^5 mitomycin C treated (25 μg/ml mitomycin C at 37° C. for 30 minutes and washed three times pith RPMI 1640 medium) BALB/C stimulator cells ([…]) in 0.2 ml RPMI 1640 medium supplemented with 10% fetal calf serum, 2mM sodium hydrogen carbonate, penicillin 20 (50 unites/ml) and streptomycin (50 μg/ml) . The cells were incubated at 37° C. in humidified atmosphere of 5% carbon dioxide and 95% of air for 48 hours and the supernatant was collected. The FR-900506 substance was dissolved in ethanol and further diluted in RPMI 1640 medium and added to the cultures to give final concentrations of 0.1 μg/ml or less.

[5] = tested on: Type II Collagen-Induced-Arthritis in female Lewis rats; test: Type II Collagen-Induced-Arthritis in Rats; format: in vivo, rat; conditions: observation period of 3 weeks
Method: Collagen was dissolved in cold 0.01 M acetic acid at a concentration of 2 mg/ml. The solution was emulsified in an equal volume of incomplete Freund's adjuvant. A total volume of 0.5 ml of the cold emulsion was injected intradermally at several sites on the back and one or two sites into the tail of female Lewis rats. The FR-900506 substance was dissolved in olive oil and administered orally. Control rats immunized with same amount of type II collagen received oral administrations of olive oil alone. Incidences of the arthritis were observed.

[6] = tested on: DTH to MBSA in BDF1 mice; test: Delayed Type Hypersensitivity (DTH) Response to methylated bovine serum albumin (MBSA); format: in vivo, mouse
Method: Female BDF1 mice were used for this test. The mice were sensitized with a subcutaneous injection of 0.1 ml emulsion consisting of equal volume of MBSA (2 mg/ml) and Freund's incomplete adjuvant(FIA). Seven days later, a 0.05 ml challenge dose of 0.4 mq/ml MIBSA in saline was injected into the plantar region of the right hind foot and 0.05 ml saline into the left hind foot to act as a control. Twenty four hours after challenge, both hind feet were measured with a dial gauge and the mean challenge in footpad thickness was measured. The FR-900506 substance was injected for 8 days orally, starting from the sensitization.

[7] = tested on: Antibody formation to sheep erythrocytes (SRBC) in BDF1 mice; test: Antibody Formation in mice (haemagglutination test); format: in vivo, mouse
Method: Male BDF1 mice 6 to 8 weeks of age were used for this test. The mice were immunized on day 0 with […] sheep erythrocytes (SRBC) intraperitoneally. Serum aggulutinin titers were determined for each individual animal with sedimentation of erythrocytes by serial two fold dilutions. The titers are expressed as -log2 The FR-900506 substance was administered orally for 5 days from one day before immunization to day 3.

[8] = tested on: mouse MLR (C57BL/6 responder cells, mitomycin C treated BALB/C stimulator cells); test: Suppression of in vitro Mixed Lymphocyte Reaction (MLR), 3H-thymidine uptake; format: cell-based
Method: The MLR test was performed in microtiter plates, with each well containing 5 ×10^5 C57BL/6 responder cells (H-2^b ), 5 ×10^5 mitomycin C treated (25μg/ml mitomycin C at 37° C. for 30 minutes and washed three times with RPMI 1640 medium) BALB/C stimulator cells (H-2^d) in 0.2 ml RPMI 1640 medium supplemented with 10% fetal calf serum, 2mM sodium hydrogen carbonate, penicillin (50 unit/ml) and streptomycin (50 μg/ml) . The cells were incubated at 37 ° C. in humidified atmosphere of 5% carbon dioxide and 95% of air for 68 hours and pulsed with ^3H-thymidine (0.5 μCi) 4 hours before the cells were collected. The object compound of this invention was dissolved in ethanol and further diluted in RPMI 1640 medium and added to the cultures to give final concentrations of 0.1 μg/ml or less.

[9] = tested on: Contact-Delayed Hypersensitivity in ICR mice; test: Contact-Delayed Hypersensitivity in mice (picryl chloride); format: in vivo, mouse
Method: Female ICR mice were used for this test. A tenth of a 7% (w/v) solution of picryl chloride in ethanol prepared at the time of the experiment was applied to the ventral surface of previously shaved animals. Such a sensitization was performed twice at intervals of 7 days. Seven days later, the thickness of the ears were measured with an ordinary engineer's micrometer and a 1% (w/v) solution of picryl chloride in olive oil was painted to both surfaces of each ear. The inflammation was evaluated 24 hours later by measuring the both of ears. The results were expressed as the average increase in thickness of the ears measured in units of 10 ^−3cm. The FR-900506 substance was injected for 14 days orally, starting from the first sensitization.

**Q.** What does the source list for `C=CCC1/C=C(\C)CC(C)CC(OC)C2OC(O)(C(=O)C(=O)N3CCCCC3C(=O)OC(/C(C)=C/C3CCC(O)C(OC)C3)C(C)C(O)CC1=O)C(C)CC2OC` (centres unmarked) [FR-900506, 17-Allyl-1,14-dihydroxy-12-[2-(4-hydroxy-3-methoxycyclohexyl)-1-methyvinyl]-23-25-dimethoxy-13,19,21,27-tetramethyl-11,28-dioxa-4-azatricyclo[22.3.1.0^4,9]octacos-18-ene-2,3,10,16-tetraone]?
**A.** MIC [1]: 0.05 µg/mL (≈ 0.0622 µM); MIC [2]: 0.025 µg/mL (≈ 0.0311 µM); the dead at dose of 100 mg/kg [3]: could not be observed; Lymphokine production (in words) [4]: inhibited lymphokine production such as interleukin 3 and interferones; Incidence of Arthritis ([5]; 3.2 mg/kg per day orally for 14 days): 0/5; Suppression of arthritis induction (in words) ([5]; daily treatment for 14 days): complete suppression of arthritis induction; Footpad Swelling ([6]; 10 mg/kg orally for 8 days): 31.0 ± 4.4 × 10^−3 cm; Footpad Swelling ([6]; 32 mg/kg orally for 8 days): 20.8 ± 4.4 × 10^−3 cm; Footpad Swelling ([6]; 100 mg/kg orally for 8 days): 7.8 ± 1.6 × 10^−3 cm; ED50 ([6]; Mus musculus, po, 192 h, orally for 8 days starting from the sensitization): 18.4 mg/kg; Haemagglutination Mean log2 titer ± SE ([7]; 10 mg/kg orally for 5 days): 7.6 ± 0.4; Haemagglutination Mean log2 titer ± SE ([7]; 32 mg/kg orally for 5 days): 6.0 ± 0.45; Haemagglutination Mean log2 titer ± SE ([7]; 100 mg/kg orally for 5 days): 4.4 ± 0.75; ED50 ([7]; Erythrocyte, po, orally for 5 days from one day before immunization to day 3): 16.9 mg/kg; Radioactivities (mean C.P.M. ± S.E.) ([8]; 0.078 ng/ml): 7189 ± 365 C.P.M.; Suppression (%) ([8]; 0.078 ng/ml): 27.6%; Radioactivities (mean C.P.M. ± S.E.) ([8]; 0.156 ng/ml): 5490 ± 431 C.P.M.; Suppression (%) ([8]; 0.156 ng/ml): 44.7%; Radioactivities (mean C.P.M. ± S.E.) ([8]; 0.313 ng/ml): 3880 ± 222 C.P.M.; Suppression (%) ([8]; 0.313 ng/ml): 60.9%; Radioactivities (mean C.P.M. ± S.E.) ([8]; 0.625 ng/ml): 614 ± 57 C.P.M.; Suppression (%) ([8]; 0.625 ng/ml): 93.8%; Radioactivities (mean C.P.M. ± S.E.) ([8]; 1.25 ng/ml): 168 ± 23 C.P.M.; Suppression (%) ([8]; 1.25 ng/ml): 98.3%; Radioactivities (mean C.P.M. ± S.E.) ([8]; 2.5 ng/ml): 54 ± 4 C.P.M.; Suppression (%) ([8]; 2.5 ng/ml): 99.5%; IC50 ([8]; Lymphocyte, mouse MLR, 68 hours, 3H-thymidine): 0.00026 µg/mL (≈ 0.000323 µM); Increase of ears at 24 hours after challenge ([9]; 32 mg/kg orally for 14 days): 6.4 ± 1.6 × 10^−3 cm; Increase of ears at 24 hours after challenge ([9]; 100 mg/kg orally for 14 days): 2.2 ± 1.5 × 10^−3 cm
